Reference: patent publication US11952610B2, “Digital microbiology” (priority 2016, dated 2024)
≈ marks a conversion by molar mass, not a printed value. Entries after “also recorded” stand apart in the source; their conditions may differ. Like-named read-outs stand apart in the source and are kept apart here.

Legend:
[1] = test system: Escherichia coli (ATCC®25922™); experiment: Antimicrobial susceptibility testing in water-in-oil droplets, microscope reading; type: cell-based; details: for MIC: Escherichia coli
Description: (§1) (at 30° C. for the C. albicans).

E. coli ATCC®25922 = details: cited from earlier work
C. albicans ATCC®24433™ [2] = experiment: Antifungal susceptibility testing in water-in-oil droplets, microscope reading; type: cell-based, Candida albicans
Description: as §1

C. albicans ATCC®24433™ [3] = details: cited from earlier work
S. aureus ATCC®29213™ [4] = experiment: Antimicrobial susceptibility testing in water-in-oil droplets, microscope reading; type: cell-based, Staphylococcus aureus
Description: as §1

E. faecalis ATCC®29212™ [5] = experiment: as above; type: cell-based, Enterococcus faecalis
Description: as §1

S. aureus ATCC®29213™ [6] = details: cited from earlier work
E. faecalis ATCC®29212™ [7] = details: cited from earlier work
[8] = test system: Aspergillus restrictus CECT 20807; experiment: Inhibition of mold growth outside the droplet aqueous phase, antifungal in oil phase; type: cell-based; details: 150 mg/L in the oil phase, 48 hours

CCN1CCN(C(=O)N[C@@H](C(=O)N[C@@H]2C(=O)N3[C@@H]2SC(C)(C)[C@@H]3C(=O)O)c2ccccc2)C(=O)C1=O [Piperacillin]
Growth in droplets (observation in words) ([1]; 1 mg/L, reading time 4 h): Limited growth in droplets with cells forming filaments | Growth in droplets (observation in words) ([1]; 2 mg/L, reading time 4 h): No growth | MIC ([1]; ATCC25922, droplets at 37° C., read after 4 and/or 6 h, read-out: Observed MIC): 2 µg/mL (≈ 3.86 µM) | Expected MIC (CLSI) (E. coli ATCC®25922): 1 to 4 µg/mL

COc1cc(Cc2cnc(N)nc2N)cc(OC)c1OC [Trimethoprim]
Growth in droplets (observation in words) ([1]; 0.125 mg/L, reading time 4 h): Limited growth in few | Growth in droplets (observation in words) ([1]; 0.25 mg/L, reading time 4 h): Limited growth in few | Growth in % of droplets ([1]; 0.25 mg/L, reading time 6 h): Growth in 20-30% of | Growth in droplets (observation in words) ([1]; 0.5 mg/L, reading time 4 h): One or few small | Growth in droplets (observation in words) ([1]; 0.5 mg/L, reading time 6 h): Limited growth in few | Growth in droplets (observation in words) ([1]; 1 mg/L, reading time 4 h): No growth | Growth in droplets (observation in words) ([1]; 1 mg/L, reading time 6 h): Limited growth in few | Growth in droplets (observation in words) ([1]; 2 mg/L, reading time 4 h): No growth | Growth in droplets (observation in words) ([1]; 2 mg/L, reading time 6 h): No growth (one small | MIC ([1]; ATCC25922, reading time 4 h, read-out: Observed MIC (4 h)): 1 µg/mL (≈ 3.44 µM) | MIC ([1]; ATCC25922, reading time 6 h, read-out: Observed MIC (6 h)): 2 µg/mL (≈ 6.89 µM) | Expected MIC (CLSI) (E. coli ATCC®25922): 0.5 to 2 µg/mL

OC(Cn1cncn1)(Cn1cncn1)c1ccc(F)cc1F [Fluconazole]
Growth in % of droplets (C. albicans ATCC®24433™ [2]; 1 mg/L, reading time 6 h): Growth in 15-20% | Growth in % of droplets (C. albicans ATCC®24433™ [2]; 2 mg/L, reading time 4 h): Growth in 15-20% | Growth in % of droplets (C. albicans ATCC®24433™ [2]; 2 mg/L, reading time 6 h): Growth in 15-20% | Growth in % of droplets (C. albicans ATCC®24433™ [2]; 4 mg/L, reading time 4 h): ~15% of droplets | Growth in % of droplets (C. albicans ATCC®24433™ [2]; 4 mg/L, reading time 6 h): Growth in 15-20% | Growth in droplets (observation in words) (C. albicans ATCC®24433™ [2]; 8 mg/L, reading time 4 h): Limited growth | Growth in droplets (observation in words) (C. albicans ATCC®24433™ [2]; 8 mg/L, reading time 6 h): Limited growth | Growth in droplets (observation in words) (C. albicans ATCC®24433™ [2]; 16 mg/L, reading time 4 h): Limited growth | Growth in droplets (observation in words) (C. albicans ATCC®24433™ [2]; 16 mg/L, reading time 6 h): Limited growth | Growth in droplets (observation in words) (C. albicans ATCC®24433™ [2]; 32 mg/L, reading time 4 h): Limited growth | Growth in droplets (observation in words) (C. albicans ATCC®24433™ [2]; 32 mg/L, reading time 6 h): Limited growth | Growth in droplets (observation in words) (C. albicans ATCC®24433™ [2]; 64 mg/L, reading time 4 h): Limited growth | Growth in droplets (observation in words) (C. albicans ATCC®24433™ [2]; 64 mg/L, reading time 6 h): Limited growth | Expected MIC (CLSI) (C. albicans ATCC®24433™ [3]): 0.25 to 1 µg/mL

C[C@@H]1[C@H](O)[C@@H](C)/C=C/C=C/C=C/C=C/C=C/C=C/C=C/[C@H](O[C@@H]2O[C@H](C)[C@@H](O)[C@H](N)[C@@H]2O)C[C@@H]2O[C@](O)(C[C@@H](O)C[C@@H](O)[C@H](O)CC[C@@H](O)C[C@@H](O)CC(=O)O[C@H]1C)C[C@H](O)[C@H]2C(=O)O [Amphotericin B]
Growth in % of droplets (C. albicans ATCC®24433™ [2]; 0.125 mg/L, reading time 4 h): 15-20% of | Growth in % of droplets (C. albicans ATCC®24433™ [2]; 0.25 mg/L, reading time 4 h): 15-20% of | Growth in % of droplets (C. albicans ATCC®24433™ [2]; 0.25 mg/L, reading time 6 h): 30-40% of the | Growth in droplets (observation in words) (C. albicans ATCC®24433™ [2]; 0.25 mg/L, reading time 24 h): Full growth | Growth in % of droplets (C. albicans ATCC®24433™ [2]; 0.5 mg/L, reading time 4 h): 15-20% of | Growth in % of droplets (C. albicans ATCC®24433™ [2]; 0.5 mg/L, reading time 6 h): ~30% of | Growth in % of droplets (C. albicans ATCC®24433™ [2]; 0.5 mg/L, reading time 24 h): ~20% of | Growth in droplets (observation in words) (C. albicans ATCC®24433™ [2]; 1 mg/L, reading time 4 h): Limited | Growth in droplets (observation in words) (C. albicans ATCC®24433™ [2]; 1 mg/L, reading time 6 h): Limited | Growth in droplets (observation in words) (C. albicans ATCC®24433™ [2]; 1 mg/L, reading time 24 h): Limited | Growth in droplets (observation in words) (C. albicans ATCC®24433™ [2]; 2 mg/L, reading time 6 h): Limited | Growth in droplets (observation in words) (C. albicans ATCC®24433™ [2]; 2 mg/L, reading time 24 h): Limited | Growth in droplets (observation in words) (C. albicans ATCC®24433™ [2]; 8 mg/L, reading time 24 h): 1-2 cells | Observed MIC (C. albicans ATCC®24433™ [2]; droplets at 30° C., read after 4, 6 (24) h): 2 to 4 µg/mL | Expected MIC (CLSI) (C. albicans ATCC®24433™ [3]): 0.25 to 1 µg/mL

CN[C@H](CC(C)C)C(=O)N[C@H]1C(=O)N[C@@H](CC(N)=O)C(=O)N[C@H]2C(=O)N[C@H]3C(=O)N[C@H](C(=O)N[C@H](C(=O)O)c4cc(O)cc(O)c4-c4cc3ccc4O)[C@H](O)c3ccc(c(Cl)c3)Oc3cc2cc(c3O[C@@H]2O[C@H](CO)[C@@H](O)[C@H](O)[C@H]2O[C@H]2C[C@](C)(N)[C@H](O)[C@H](C)O2)Oc2ccc(cc2Cl)[C@H]1O [Vancomycin]
Growth in % of droplets (S. aureus ATCC®29213™ [4]; 0.25 mg/L, reading time 4 h): 25-50% of droplets | Growth in % of droplets (S. aureus ATCC®29213™ [4]; 0.25 mg/L, reading time 6 h): ~50% of the droplets | Growth in droplets (observation in words) (S. aureus ATCC®29213™ [4]; 0.5 mg/L, reading time 4 h): 1 droplet with cells | Growth in % of droplets (S. aureus ATCC®29213™ [4]; 0.5 mg/L, reading time 6 h): ~10% of droplets | Growth in droplets (observation in words) (S. aureus ATCC®29213™ [4]; 1 mg/L, reading time 6 h): No growth | Growth in % of droplets (E. faecalis ATCC®29212™ [5]; 0.25 mg/L, reading time 4 h): Growth in 25-50% | Growth in % of droplets (E. faecalis ATCC®29212™ [5]; 0.25 mg/L, reading time 6 h): Growth in 20-50% | Growth in % of droplets (E. faecalis ATCC®29212™ [5]; 0.5 mg/L, reading time 4 h): Growth in 25-30% | Growth in % of droplets (E. faecalis ATCC®29212™ [5]; 0.5 mg/L, reading time 6 h): ~30% of droplets | Growth in droplets (observation in words) (E. faecalis ATCC®29212™ [5]; 1 mg/L, reading time 4 h): Limited growth in | Growth in % of droplets (E. faecalis ATCC®29212™ [5]; 1 mg/L, reading time 6 h): Growth in 20-30% | Growth in droplets (observation in words) (E. faecalis ATCC®29212™ [5]; 2 mg/L, reading time 4 h): No growth | Growth in droplets (observation in words) (E. faecalis ATCC®29212™ [5]; 2 mg/L, reading time 6 h): No growth | Expected MIC (CLSI) (S. aureus ATCC®29213™ [6]): 0.25 to 1 µg/mL | Expected MIC (CLSI) (E. faecalis ATCC®29212™ [7]): 1 to 4 µg/mL

O=C1OC2(c3cc(I)c(O)c(I)c3Oc3c2cc(I)c(O)c3I)c2c(Cl)c(Cl)c(Cl)c(Cl)c21 [rose bengal, 4,5,6,7-tetrachloro-2′,4′,5′,7′-tetraiodofluorescein]
Mold growth outside the aqueous phase [8]: the hyphae spreading was inhibited and mold growth was confined within the droplet; also recorded: inhibition of mold growth outside the aqueous phase

CCn1cc(C(=O)O)c(=O)c2ccc(C)nc21 [Nalidixic acid]
Growth in % of droplets ([1]; 1 mg/L, reading time 6 h): Growth in about 50% of | Growth in droplets (observation in words) ([1]; 2 mg/L, reading time 6 h): One or few small | Growth in droplets (observation in words) ([1]; 4 mg/L, reading time 4 h): One or few small | Growth in droplets (observation in words) ([1]; 4 mg/L, reading time 6 h): No growth | MIC ([1]; ATCC25922, 6 h, read-out: Observed MIC): 4 µg/mL (≈ 17.2 µM) | Expected MIC (CLSI) (E. coli ATCC®25922): 1 to 4 µg/mL
